Data reported in patent US6979447B2, “Immunomodulation and effect on cell processes relating to serotonin family receptors” (Philadelphia Health and Education Corporation, priority 2001, dated 2005).

Experiments:
human lymphocytes [1] = assay: Viable cell counts (trypan blue) during ConA stimulation of human lymphocytes; assay type: cell-based; details: ConA 10 μg/ml, manual trypan blue counts, FIG. 11
Protocol: FIG. 11 is a diagram depicting the effect of a 5HT type 1 receptor antagonist and a 5HT type 2 receptor antagonist on the cell numbers occurring during the mitogenic stimulation of human lymphocyte activation. The cells were stimulated with 10 μg/ml ConA. The cells were repurified on a Ficoll gradient prior to addition of the inhibitor. Trypan blue exclusion was used to count the viable cells.
To further assess the effects of propanolol (a general 5-HTR 1 antagonist) and risperidone (a general 5-HTR 2 antagonist) on the mitogenically stimulated lymphocyte culture, the number of viable cells were manually counted as the assay progressed. If the cells were not stimulated, there was no detectable change in the number of viable cells. When the cells were stimulated with ConA, a small lag period was observed and the beginning of the growth phase compared to the stimulation response curve observed in the absence of the inhibitor. […] Apparently, there is no decrease or increase compared with the starting cell numbers. It is unclear whether or not this is due too anergy, an inability to initiate the activation pathway, or both. […] Thus, based on the data presented here, the classes of antagonists that inhibit the type 2 serotonin receptors appear to be rate limiting for the lymphocyte activation processes.

[2] = system: allogeneic CTL response to P815 cells; assay: Murine allograft model, CTL killing of P815 target cells by splenocytes; assay type: in vivo, C57BL/6J mice; details: tail vein bolus 200 μg/injection on days 6 and 8, sacrificed day 14, FIG. 13
Protocol: The in vivo validation screen used was an art-recognized murine allogeneic rejection model as described in Zhan et al., 2000. For this assay, a complete MHC miss-match system was employed wherein 5×10^6 P815 cells ([H-2^d] DBA/2 mastocytoma) were injected into the peritoneal cavity of C57BL/6J (H-2^b) mice on day 0 of the experiment. These mice typically generate a strong cytotoxic T lymphocyte (CTL) reaction in response to P815 cells. Following the initial P815 cell inoculation, the mice were allowed to develop a CTL response (this usually takes about 10-14 days). […] Mice were then sacrificed on day 14 of the experiment as indicated in the figures; and the allogeneic CTL response was assayed as described previously (Tretiakova et al., 2000, Nature Biotechnology 18:984-988). The primary spleen cells from the treated and untreated animals were used in the direct CTL readout. Freshly obtained primary spleen cells were incubated with the [^3H] labeled target cells (P815 cells) at 100:1, 50:1, 25:1, and 12.5:1 ratios for 3.5 hours at 37° C. and harvested using a PHD harvester. The percentage of specific killing was determined using the formula % kill=(S−E)/S, where S is the amount of the DNA retained by the target cells in the absence of the effector cells and E is the amount of retained DNA in the presence of the effector cells (expressed in counts per minute; cpm).
This is an art-recognized model of allograft […] rejection based on that described by […]. (2000). In this model, there is a complete MHC mismatch between the P815 cells (H-2^d) and the C57BL6 mouse (H-2^b), thus ensuring an aggressive immune response. The data disclosed in FIG. 13, depicts results of experiments that included 6 treatment groups, each group consisting of three mice. Each mouse received 5×10^6 P815 cells injected into the peritoneal cavity on day 0 of the study. The first group was an untreated control group, which was used to establish the baseline response of the mice against the allogeneic stimulus. These mice, without any further treatments, were sacrificed, as were the other treatment groups, on day 14 of the study and their splenocytes assayed for target-specific killing of the P815 cells.
The average kill observed for the untreated group was about 45% at an effector to target ratio of 100:1. […] The timing of the drug administration was selected to ensure that the T cells were fully activated prior to the drug treatment. The third group was treated with propanolol, a 5HT-1 antagonist. All of the 5HT receptor antagonist-treated groups were treated as described for the risperidone-treated group. The fourth group was treated chronically with CyclosporinA. The Cyclosporin A was administered ip at a dosage of 100 μg/injection starting two days prior to the onset of the study, i.e., at day-2, and the injections were continued on a daily basis for the duration of the study.
Finally, studies conducted in vivo using the CD8-dependent allograft rejection model, in which P815 cells (a rapidly growing cell line taken from a mastocytoma in a DBA mouse), were expanded and used to create a robust rejection response in a C57BL6 mouse. In this study the mice received 5×10^6 P815 cells injected into their peritoneal cavity on day 0 of the study. The first group was an untreated control group (naïve animals), used to acquire the baseline response of the mice against the allogeneic stimulus. The positive controls were treated with the allogeneic cells without any further treatments. These animals were used to assess the induced allogeneic response against the P815 cells.
All treatment groups were sacrificed on day 14 of the study and their splenocytes assayed for target-specific killing of the P815 cells (the averaged overall kill observed for the positive control group was about 45% at an effector to target ratio of 100:1). The serotonin-specific compounds were administered via tail vein injection (300 μg/injection) on days 5 and 7 of the study. […]

human lymphocytes [3] = assay: Human mitogenic (ConA) stimulation, 3H-thymidine incorporation; assay type: cell-based; details: harvested 72 hours
Protocol: Blood from healthy volunteers was drawn using venipuncture, using Vacutainer collection sets and heparinized collection vials. The blood was diluted 1:1 using HBSS to a total volume of 30 ml in 50 ml conical tubes (Fisher Scientific, Co., Pittsburgh, Pa.). […] Cells from the buffy coats were collected and the residual Histopaque was washed away using repeated centrifugations in HBSS. After washes, cells were resuspended at 5 million cells per ml in RPMI, supplemented with 2% FBS. To remove adherent cells, the suspension was plated onto a 6 well flat-bottom plate (Corning Costar), 3 ml/well, and incubated for 2 hours at 37° C., 5% CO2. Non-adherent cells were harvested after this incubation, were counted and resuspended in RPMI supplemented with 10% human serum (Sigma).
All drugs were pre-plated before the cell suspension was added onto each well of a 96-well round-bottom plate. All experimental conditions were assayed in at least triplicate. Cells suspended in RPMI supplemented with 10% human serum were plated at 100,000 cells per well to a final volume of 200 μl. […] Control samples received no ConA stimulation. The plates were incubated at 37° C. and 5% CO2. One microCurie of tritiated thymidine was added to each well after 60 hours, and the plates were harvested 12 hours later.

human lymphocytes [4] = assay: Human mixed lymphocyte reaction (allogeneic stimulation); assay type: cell-based; details: harvested 120 hours
Source text: Blood from two healthy, non-related, donors was taken as described above. Peripheral blood mononuclear cells were isolated as described previously elsewhere. The adherent cells were separated from the suspension cells as described previously for both donors. Suspension cells from both donors (donors A and B) were used as responders. The remaining adherent cells from each of the donors were used as stimulators against a different donor (suspension A against adherent B and adherent A against suspension B). The stimulator cells were irradiated at 35 Gy. Drugs were pre-plated onto 96 well, U-bottom plates in triplicate. 200,000 “stimulator” cells in RPMI supplemented with 10% human serum were then plated in each well. 200,000 “responder” cells in the same medium were then plated over stimulators to a final volume of 200 μl/well. Background controls received either no stimulator cells, or no responder cells. The plates were incubated at 37° C. and 5% CO2. 1 μCi of tritiated thymidine was added to each well after 4.5 days, and the plates were harvested 12 hours later.

[5] = system: RPMI 8226 multiple myeloma cells; assay: RPMI 8226 cell proliferation / viability (trypan blue, MTT, 3H-thymidine); assay type: cell-based, human; details: low dose-titration, FIGS. 23, 24 and 25
Protocol: The human plasmacytoma (multiple myeloma) cell line, RPMI 8226 (American Type Culture Collection, Manassas, Va.), was cultured in RPMI 1640 supplemented with 10 mM HEPES, 1 mM sodium pyruvate, 4.5 g/L glucose, 1.5 g/L bicarbonate and 20% FBS (non-heat inactivated).
Cell proliferation was assayed by three methods—Trypan Blue Exclusion was used to quantify the number of viable cells in culture; 3-(4,5-dimethylthiazol-2-yl)-2,5-diphenyl tetrazolium bromide (MTT) reduction was used to assay mitochondrial activity (and thus cell viability); and ^3H-Thymidine uptake was employed to assay for active DNA synthesis.
The following 5-HT receptor modulating compounds were tested for their effects on RPMI 8226 cells in vitro cultured at the described densities and across the indicated concentration ranges.

RPMI-8226 cells = assay: Hematoxylin-eosin / bis-benzamide staining of RPMI-8226 cytospins; assay type: cell-based, human
Protocol: 2.0×10^5 RPMI-8226 cells were cultured, in 6-well culture plates, in the presence of the indicated drug concentrations, in a total of 5 mL RPMI-1640 supplemented with 10% FBS. Each well was harvested in its entirety and divided into two identical samples for cytospins.
1.0×10^5 RPMI-8226 cells from each treatment group were loaded into Cyto-funnels and centrifuged at 500 rpm for 4 minutes with medium acceleration. Slides were then fixed through graded methanol in PBS (100%, 5 minutes; 80%, 5 minutes; 50%, 5 minutes), washed for 5 minutes in PBS and stored in PBS at 4° C. until stained.
Cytospun slides were stained with Hematoxylin and Eosin, followed by the nuclear stain, bis-benzamide, rinsed and mounted according to standard staining protocols. Slides were visualized under both brightfield and fluorescent light to generate matched images of the same slide field (see, e.g., FIGS. 28 and 29).

cells = assay: Cell morphology change on inhibition of serotonergic signalling; assay type: cell-based; details: after 24 hours of treatment, FIG. 30
Protocol: Briefly, cells were incubated with a 5-HTR antagonist (e.g., a selective type 1B inhibitor SD 216641) and the effects of treatment were assessed after 24 hours. […] For instance, detection of cell changes can be assessed using optical instruments (electron and light microscopy, as well as fluorescence activated cell sorting, and the like), or any other device that assesses and detects changes in cell size, density, morphology, and the like. Such devices are well known in the art and are not recounted here.

Compound	effect on number of viable cells (human lymphocytes [1])	effect on allograft (CTL) response [2]	effect on activation / proliferative response (human lymphocytes [3]; ConA 5 μg/ml, FIGS. 7A, 8A, 9A)	IC50 (human lymphocytes [3]; ConA (5 μg/ml) stimulation of human lymphocytes, FIG. 7A, read-out: apparent IC50) [nM]	effect on activation / proliferative response (human lymphocytes [4]; allogeneic stimulation, FIGS. 7B, 8B, 9B)	IC50 (human lymphocytes [4]; allogeneic stimuli (mixed lymphocyte reaction), FIG. 7B, read-out: apparent IC50) [nM]	effect on growth of RPMI-8226 cells [5]	chromatin / nuclear morphology (RPMI-8226 cells; 50 μM, 9 hour treatment, FIGS. 28, 29)	induction of programmed cell death (RPMI-8226 cells; FIGS. 28 and 29)	change in cell morphology (cells)
Cc1nc2n(c(=O)c1CCN1CCC(c3noc4cc(F)ccc34)CC1)CCCC2 [risperidone]	caused a brief cell increase, followed by the elimination of the cells in culture	inhibited the allograft response to varying degrees								
COc1ccc(NC(=O)c2ccc(-c3ccc(-c4noc(C)n4)cc3C)cc2)cc1OCCN(C)C [SB 216641]			complete inhibition of the activation response	~200	complete inhibition of the activation response	~50	completely inhibited the growth of the cancer cells	Extensive chromatin condensation and nuclear fragmentation	induced programmed cell death comparable to that induced by the topoisomerase I inhibitor, camptothecin	an increase in cell size
CC(C)NC[C@H](O)COc1cccc2ccccc12 (racemic) [propanolol]	prevents the cell from growing	did not protect the mice from the allograft rejection response								
